The assay deals with MDA-MB-436 cells. Briefly: Growth inhibition assay against BRCA mutant human breast cancer MDA-MB-436 cell line (CCK-8, 7 days). Type of assay: cell-based.
The term IC50 denotes the concentration that inhibits the measured activity by half. In turn, `CNC(=O)c1ccc(N2CCN(Cc3ccc4c5c(c(=O)[nH]c4c3)COC5)CC2)cn1` [Example 1, 7-((4-(6-(methylcarbamoyl)pyridin-3-yl)piperazin-1-yl)methyl)-3,5-dihydrofuro[3,4-c]quinolin-4(1H)-one] displayed an IC50 of 170 nM.

On to `CNC(=O)c1ccc(N2CCN(Cc3ccc4c5c(c(=O)[nH]c4c3)CCC5)CC2)c(C)n1` [Example 17, 7-((4-(2-methyl-6-(methylcarbamoyl)pyridin-3-yl)piperazin-1-yl)methyl)-1,2,3,5-tetrahydro-4H-cyclopenta[c]quinolin-4-one], for which the IC50 came to 2.59 nM. To `CNC(=O)c1ccc(N2CCN(Cc3ccc4c(c3)[nH]c(=O)c3cncn34)CC2)c(C)n1` [Example 26, 7-((4-(2-methyl-6-(methylcarbamoyl)pyridin-3-yl)piperazin-1-yl)methyl)imidazo[1,5-a]quinoxalin-4(5H)-one] belongs 23.9 nM. Molecule `CNC(=O)c1ccc(N2CCN(Cc3ccc4c(c3)[nH]c(=O)c3ncnn34)CC2)c(C)n1` [Example 29, 7-((4-(2-methyl-6-(methylcarbamoyl)pyridin-3-yl)piperazin-1-yl)methyl)-[1,2,4]triazolo[1,5-a]quinoxalin-4(5H)-one] showed an IC50 of 28.2 nM. In the case of `CNC(=O)c1ccc(N2CCN(Cc3ccc4c(c3)[nH]c(=O)n3ccnc43)CC2)c(C)n1` [Example 31, 8-((4-(2-methyl-6-(methylcarbamoyl)pyridin-3-yl)piperazin-1-yl)methyl)imidazo[1,2-c]quinazolin-5(6H)-one], the IC50 stood at 2.08 nM. Under `CNC(=O)c1ccc(N2CCN(Cc3ccc4c(c3)[nH]c(=O)c3cccn34)CC2)c(F)n1` [Example 34, 7-((4-(2-fluoro-6-(methylcarbamoyl)pyridin-3-yl)piperazin-1-yl)methyl)pyrrolo[1,2-a]quinoxalin-4(5H)-one] stands 0.75 nM. To `CNC(=O)c1ccc(N2CCN(Cc3ccc4c(c3)[nH]c(=O)c3cncn34)CC2)c(Cl)n1` [Example 39, 7-((4-(2-chloro-6-(methylcarbamoyl)pyridin-3-yl)piperazin-1-yl)methyl)imidazo[1,5-a]quinoxalin-4(5H)-one] belongs 3.56 nM. To `CNC(=O)c1ccc(N2CCN(Cc3cc(F)c4c(c3)[nH]c(=O)c3cccn34)CC2)c(F)n1` [Example 41, 7-((4-(2-fluoro-6-(methylcarbamoyl)pyridin-3-yl)piperazin-1-yl)methyl)-9-fluoropyrrolo[1,2-a]quinoxalin-4(5H)-one] belongs 1.41 nM; to `CNC(=O)c1ccc(N2CCN(Cc3cc(F)c4c(c3)[nH]c(=O)c3cccn34)CC2)c(Cl)n1` [Example 42, 7-((4-(2-chloro-6-(methylcarbamoyl)pyridin-3-yl)piperazin-1-yl)methyl)-9-fluoropyrrolo[1,2-a]quinoxalin-4(5H)-one], 0.93 nM; to `CNC(=O)c1ccc(N2CCN(Cc3cc(F)c4c(c3)[nH]c(=O)c3ccnn34)CC2)c(C)n1` [Example 43, 7-((4-(2-methyl-6-(methylcarbamoyl)pyridin-3-yl)piperazin-1-yl)methyl)-9-fluoropyrazolo[1,5-a]quinoxalin-4(5H)-one], 1.2 nM. `CNC(=O)c1ccc(N2CCN(Cc3cc(F)c4c(c3)[nH]c(=O)c3ccnn34)CC2)c(Cl)n1` [Example 45, 7-((4-(2-chloro-6-(methylcarbamoyl)pyridin-3-yl)piperazin-1-yl)methyl)-9-fluoropyrazolo[1,5-a]quinoxalin-4(5H)-one] had an IC50 of 2.24 nM. To `CNC(=O)c1ccc(N2CCN(Cc3cc(Cl)c4c(c3)[nH]c(=O)c3ccnn34)CC2)c(C)n1` [Example 46, 7-((4-(2-methyl-6-(methylcarbamoyl)pyridin-3-yl)piperazin-1-yl)methyl)-9-chloropyrazolo[1,5-a]quinoxalin-4(5H)-one] belongs 2.27 nM; to `CNC(=O)c1ccc(N2CCN(Cc3cc(Cl)c4c(c3)[nH]c(=O)c3ccnn34)CC2)c(F)n1` [Example 47, 7-((4-(2-fluoro-6-(methylcarbamoyl)pyridin-3-yl)piperazin-1-yl)methyl)-9-chloropyrazolo[1,5-a]quinoxalin-4(5H)-one], 2.6 nM. Under `CCNC(=O)c1ccc(N2CCN(Cc3ccc4c5c(c(=O)[nH]c4c3)CCC5)CC2)c(C)n1` [Example 49, 7-((4-(2-methyl-6-(ethylcarbamoyl)pyridin-3-yl)piperazin-1-yl)methyl)-1,2,3,5-tetrahydro-4H-cyclopenta[c]quinolin-4-one] stands 2.18 nM; under `CCNC(=O)c1ccc(N2CCN(Cc3ccc4c5c(c(=O)[nH]c4c3)CCC5)CC2)c(Cl)n1` [Example 50, 7-((4-(2-chloro-6-(ethylcarbamoyl)pyridin-3-yl)piperazin-1-yl)methyl)-1,2,3,5-tetrahydro-4H-cyclopenta[c]quinolin-4-one], 5.7 nM; under `CNC(=O)c1ccc(N2CCN(Cc3ccc4c(c3)[nH]c(=O)c3cc(C)cn34)CC2)c(C)n1` [Example 55, 7-((4-(2-methyl-6-(methylcarbamoyl)pyridin-3-yl)piperazin-1-yl)methyl)-2-methylpyrrolo[1,2-a]quinoxalin-4(5H)-one], 1.44 nM. For the molecule `CNC(=O)c1ccc(N2CCN(Cc3ccc4c(c3)[nH]c(=O)c3c(C)cnn34)CC2)c(C)n1` [Example 58, 7-((4-(2-methyl-6-(methylcarbamoyl)pyridin-3-yl)piperazin-1-yl)methyl)-3-methylpyrazolo[1,5-a]quinoxalin-4(5H)-one], half-maximal inhibition (IC50) was put at 1.87 nM.

`O=C(NC1CC1)c1ccc(N2CCN(Cc3ccc4c(c3)[nH]c(=O)c3cccn34)CC2)c(F)n1` [Example 60, 7-((4-(2-fluoro-6-(cyclopropylcarbamoyl)pyridin-3-yl)piperazin-1-yl)methyl)pyrrolo[1,2-a]quinoxalin-4(5H)-one] registered an IC50 of 0.63 nM.

`O=C(NC1CC1)c1ccc(N2CCN(Cc3ccc4c(c3)[nH]c(=O)c3cccn34)CC2)c(Cl)n1` [Example 61, 7-((4-(2-chloro-6-(cyclopropylcarbamoyl)pyridin-3-yl)piperazin-1-yl)methyl)pyrrolo[1,2-a]quinoxalin-4(5H)-one] showed an IC50 of 0.98 nM. To `Cc1nc(C(=O)NC2CC2)ccc1N1CCN(Cc2ccc3c4c(c(=O)[nH]c3c2)COC4)CC1` [Example 63, 7-((4-(2-methyl-6-(cyclopropylcarbamoyl)pyridin-3-yl)piperazin-1-yl)methyl)-3,5-dihydrofuro[3,4-c]quinolin-4(1H)-one] belongs 3.32 nM. `CNC(=O)c1ccc(N2CCN(Cc3ccc4c(c3)[nH]c(=O)c3cccn34)CC2)cn1` [Example 65, 7-((4-(6-(methylcarbamoyl)pyridin-3-yl)piperazin-1-yl)methyl)pyrrolo[1,2-a]quinoxalin-4(5H)-one] registered an IC50 of 1.12 nM. To `CNC(=O)c1ccc(N2CCN(Cc3cc(F)c4c(c3)[nH]c(=O)c3cc(C)nn34)CC2)c(C)n1` [Example 75, 7-((4-(2-methyl-6-(methylcarbamoyl)pyridin-3-yl)piperazin-1-yl)methyl)-9-fluoro-2-methylpyrazolo[1,5-a]quinoxalin-4(5H)-one] belongs 3.31 nM. Under `CNC(=O)c1ccc(N2CCN(Cc3cc(F)c4c5c(c(=O)[nH]c4c3)CCC5)CC2)c(C)n1` [Example 79, 7-((4-(2-methyl-6-(methylcarbamoyl)pyridin-3-yl)piperazin-1-yl)methyl)-9-fluoro-1,2,3,5-tetrahydro-4H-cyclopenta[c]quinolin-4-one] stands 1.04 nM.

For the origin of these results see patent US20240368169A1 (priority 2021, published 2024).
